According to patent US20110230552A1, “USE OF DRONEDARONE FOR THE PREPARATION OF A MEDICAMENT FOR THE PREVENTION OF STROKE OR TRANSIENT ISCHEMIC ATTACK” (SANOFI-AVENTIS, priority 2008, published 2011):
Structures can show the parent of a compound that is named as a salt. Where two headings read alike, the source gives them in different places.

Columns and labels:
[1] = tested on: patients with a history of atrial fibrillation or atrial flutter; test: Prospective, multinational, double-blind, randomized, placebo-controlled, parallel group trial (ATHENA) of dronedarone hydrochloride for prevention of stroke; format: in vivo, human
Protocol: Efficacy of dronedarone and its pharmaceutically acceptable salts versus placebo for the prevention of stroke was provided via dronedarone hydrochloride during a prospective, multinational, double-blind, randomized, multi-center, placebo-controlled, parallel group trial.
Eligible patients have a history of atrial fibrillation or atrial flutter and/or may be in normal sinus rhythm or in atrial fibrillation or flutter at the time of recruitment. Recruitment of patients was conducted taking into account the following inclusion criteria:
1) One of the following risk factors had to be present: • age equal to or greater than 70 years, • hypertension (taking antihypertensives of at least two different classes), • diabetes, • history of cerebral stroke (transient ischemic event or completed cerebral stroke) or of systemic embolism, • left atrial diameter greater than or equal to 50 mm measured by echocardiography, • left ventricular ejection fraction less than 40%, measured by two-dimensional echography; or • age equal to or above 70, or even above 75, possibly combined with at least one of the risk factors below: • hypertension (taking antihypertensives of at least two different classes), • diabetes, • history of cerebral stroke (transient ischemic event or completed cerebral stroke) or of systemic embolism, • left atrial diameter greater than or equal to 50 mm measured by echocardiography, • left ventricular ejection fraction less than 40%, measured by two-dimensional echography;
2) availability of one electrocardiogram within the last six months, showing that the patients was or is in atrial fibrillation/flutter,
3) availability of one electrocardiogram within the last six months, showing that the patients was or is in sinus rhythm.
Study drug treatment units (placebo or dronedarone hydrochloride corresponding to 400 mg of base) were such that each patient took one tablet in the morning during or shortly after breakfast and one tablet in the evening during or shortly after dinner.
The treatment duration depended on the time of recruitment of each patient in the trial and could be comprised from 12 months to 30 months.
Results were calculated using non-parametric Kaplan-Meier estimate.
Cox's proportional hazard model was used to estimate the hazard ratio also called relative risk.
Relative risk (RR) is the ratio between the risk of having a stroke (or transient ischemic attack (TIA)) for patients treated with dronedarone and the risk of having a stroke (or transient ischemic attack (TIA)) for patients treated with placebo.
Percentage of decrease of an event is calculated as follow: […]

[2] = tested on: patients with persistent atrial fibrillation; conditions: SAFE-T trial, cited from earlier work; for increasing the time to a recurrence of atrial fibrillation, versus placebo / effectiveness in increasing time to recurrence of atrial fibrillation relative to sotalol: P<0.001; for number of strokes per 100 patient-years of follow-up: calculated from page 1866 of Singh et al., placebo 1.91
[3] = on-treatment analysis of 30 months
[4] = versus placebo, Cox's proportional hazard model

In the case of `CCCCc1oc2ccc(NS(C)(=O)=O)cc2c1C(=O)c1ccc(OCCCN(CCCC)CCCC)cc1` [dronedarone hydrochloride, 2-n-butyl-3-[4-(3-di-n-butylaminopropoxy)benzoyl]-5-méthylsulfonamido-benzofuranne], the “fatal stroke events reported” value ([1]; 2301 of 4628 patients on drug, 400 mg base twice daily, 12 to 30 months, placebo group 18 events) is reported as 11, the “ischemic stroke events reported” value ([1]; 2301 of 4628 patients on drug, 400 mg base twice daily, 12 to 30 months, placebo group 49 events) is reported as 33 and the stroke events reported ([1]; 2301 of 4628 patients on drug, 400 mg base twice daily, 12 to 30 months, placebo group 70 events) is reported as 45. For the same molecule, the “stroke or TIA events reported” value ([1]; 2301 of 4628 patients on drug, 400 mg base twice daily, 12 to 30 months, placebo group 80 events) was 52, the “ACS events reported (cardiovascular hospitalization for Acute Coronary Syndrome)” value ([1]; 2301 of 4628 patients on drug, 400 mg base twice daily, 12 to 30 months, placebo group 89 events) was 62 and the “stroke, Acute Coronary Syndrome (ACS) or cardiovascular death events reported” value ([1]; 2301 of 4628 patients on drug, 400 mg base twice daily, 12 to 30 months, placebo group 216 events) was 147. The “stroke, Acute Coronary Syndrome (ACS) or death events reported” value ([1]; 2301 of 4628 patients on drug, 400 mg base twice daily, 12 to 30 months, placebo group 262 events) was 196, the “time course of effect on first stroke (FIG. 2, Kaplan Meier cumulative incidence curves)” value [1, 3] was “occurred early and increased over time” and the “time course of effect on first stroke or TIA (FIG. 1, Kaplan Meier cumulative incidence curves)” value [1, 3] was “occurred early and increased over time”. The “relative risk of cardiovascular hospitalization for Acute Coronary Syndrome” value [1, 4] was 0.70, the “relative risk of fatal stroke” value [1, 4] was 0.62 and the “relative risk of ischemic stroke” value [1, 4] was 0.68. The “relative risk of stroke” value [1, 4] was 0.65, the “relative risk of stroke or TIA” value [1, 4] was 0.65 and the “relative risk of stroke, Acute Coronary Syndrome (ACS) or cardiovascular death” value [1, 4] was 0.68. The “decrease of the relative risk of cardiovascular hospitalization for Acute Coronary Syndrome” value ([1]; versus placebo, x=1-RR) was 30%, the “decrease of the relative risk of fatal stroke” value ([1]; versus placebo, x=1-RR) was 38% and the “decrease of the relative risk of ischemic stroke” value ([1]; versus placebo, x=1-RR) was 32%. The “decrease of the relative risk of stroke” value ([1]; versus placebo, x=1-RR) was 35%, the “decrease of the relative risk of stroke or TIA” value ([1]; versus placebo, x=1-RR) was 35% and the “decrease of the relative risk of stroke, Acute Coronary Syndrome (ACS) or cardiovascular death” value ([1]; versus placebo, x=1-RR) was 32%. For the same molecule, the “decrease of the relative risk of stroke, Acute Coronary Syndrome (ACS) or death” value ([1]; versus placebo, x=1-RR) was 25%.
For `CC(C)NCC(O)c1ccc(NS(C)(=O)=O)cc1` (stereo not shown) [sotalol], the “increasing the time to a recurrence of atrial fibrillation, versus placebo” value [2] is listed as “significantly more effective than placebo” and the “number of strokes per 100 patient-years of follow-up” value [2] is listed as 2.71 per 100 patient-years.
For `CCCCc1oc2ccccc2c1C(=O)c1cc(I)c(OCCN(CC)CC)c(I)c1` [amiodarone], the “increasing the time to a recurrence of atrial fibrillation, versus placebo” value [2] is listed as “significantly more effective than placebo”, the “effectiveness in increasing time to recurrence of atrial fibrillation relative to sotalol” value ([2]; analysis according to the treatment actually received) is listed as “four times as effective” and the “number of strokes per 100 patient-years of follow-up” value [2] is listed as 2.06 per 100 patient-years. For the same molecule, the “effectiveness in increasing time to recurrence of atrial fibrillation relative to sotalol” value ([2]; intention-to-treat analysis) was “six times as effective as sotalol”.
